These results are taken from patent US20250230413A1, “METHODS AND SYSTEMS FOR THE CULTURE OF CELLS AT LIQUID-LIQUID INTERFACES” (Queen Mary University of London, priority 2022, published 2025).

One assay concerns iPSCs. The assay can be described thus: Cardiomyocyte differentiation of iPSCs on βLG-SMCC-VN microdroplets or EBs, flow cytometry of TNNT2+. The class given is cell-based, human. Particulars: differentiation initiated 2 days after seeding, CDM3 medium. Here is the method: Embryoid bodies Formation. Polyvinyl alcohol (PVA) was dissolved in E8 flex medium overnight to achieve a concentration of 4% PVA. This was then filtered and supplemented with 10 μM Y-27632. iPSCs were dissociated with Gentle Cell Dissociation Reagent according to manufacturer's instructions. After centrifugation, cells were counted. An aliquot of the cell suspension is then taken and centrifuged at 120×g for 3 minutes. The cell pellet was then resuspended in E8 flex with PVA and Y-27632 to achieve a cell concentration of 1×10^6 cells/mL. A petri dish was then filled with sterile water. The lid was then placed upside down and multiple 10 μL drops of the cell suspension was then placed on the lid. The lid was then placed back on the petri dish resulting in hanging droplets. After 24 hours, 30 embryoid bodies were transferred to a well of an ultra-low attachment 6-well plate filled with E8 flex medium.
Cardiomyocyte Differentiation. The iPSCs were seeded on microdroplets and tissue culture plastic controls in E8 flex medium supplemented with Y-27632, a ROCK inhibitor. After 24 hours, the medium was replaced with E8 flex medium. […]
Flow Cytometry. […] Cells were then counted and stained with the staining solution for surface markers. […] Stained cells were analysed with BD LSRII. […] The data was analysed using FlowJo software.
On the technique in general: Flow cytometry measures light scatter and fluorescence of single cells or particles in a stream.

A further assay deals with HEK293T cells. The following applies: HEK293T on BSA interfaces for 22 days.
In assay [1] the test system is MSCs. The assay is described as follows: Growth of MSCs at crosslinked βLG and BSA nanosheets (Novec 7500 interfaces). The class given is cell-based, human. The following applies: MSCs growing for 5 days; interfaces crosslinked by sulfo-SMCC (1 mg/ml, pH 7.4), fibronectin coupled. Here is the method: (§1) Human Bone Marrow Derived Mesenchymal Stem Cell culture and seeding. hBM-MSCs were purchased from PromoCell and cultured according to the supplier's recommendations.
Generation of fluorinated pinned droplets for cell culture. Thin glass slides (25×60 mm, VWR) were washed with isopropanol and dried under nitrogen, prior to plasma oxidation for 10 min (Henniker Plasma HPT-200). Slides were then placed into an anhydrous ethanol solution (9.5 mL) containing trichloro-1H,1H,2H,2H-perfluorooctyl silane (97%, Sigma-Aldrich) (500 μL) for 1 h, at room temperature. The fluorinated glass slides were cut into chips (1×1 cm) and placed into a 24 well plate (for Hoechst staining), or the glass slides were kept at their original dimensions and embedded on sticky-slide 8 wells plates (Ibidi), for imaging on a confocal microscope. After sterilization with 70% ethanol, the wells were washed (once) and then filled with 2 mL (or 600 μL for the sticky wells) of PBS (pH 7.4 for βLG, Fibrinogen and different BSA types, and pH 10.5 for poly(L-lysine), PLL). 100 μL of fluorinated oil (or 10 μL for the sticky wells), with or without fluorinated surfactant (10 μg/mL) were added to the surface of the glass slide, forming a fluorinated pinned droplet. For samples prepared in 24 well plates, 30 μL of the oil phase was removed using a micropipette, to form a flatter oil droplet. […]
Immuno-fluorescence staining.

Assay [2] relates to MSCs. The assay is described as follows: Scale-up growth of MSCs on fluorinated oil/MA-BSA bioemulsions in 250 ml flask. Particulars: 15 days, 250 ml flask under agitation. It counts as cell-based, human. The protocol: as §1
RGD peptide coupling to biofunctionalised BSA. For the preparation of emulsions, RGD peptide coupling to functionalized BSA molecules was performed first. RGD peptide concentration was determined for each functionalized BSA formulation to enable coupling of 10 peptides per BSA molecule. Custom peptides were designed to allow reaction with functional groups in the modified BSA backbone. GCGGRGDSPG peptide was coupled to NB-BSA via […] in the presence of 1% lithium phenyl-2,4,6-trimethylbenzoylphosphinate (LAP, Sigma-Aldrich), crosslinking was performed with 405 nm blue light for 3 min. at 20 mW/cm2. CGGRGDSPG peptide was conjugated to AC-BSA and MA-BSA via […] in PBS pH 9 for at least 3 hours. The same procedure was used for FITC-RGD bearing peptides.
Conical flask bioreactor scale-up. Scale up of the MA-BSA bioemulsions system was performed on 250 ml polycarbonate Erlenmeyer flasks (Corning) with Vent caps, using a total amount of medium of 50 ml. […] Cell numbers/surface area used in bioemulsions and 2D conditions were the same (1000 cells/cm^2) and calculated assuming and average diameter of 100 μm for the bioemulsions. […]

Method for HEK293T cells: Cell seeding on emulsions. HEK293T cells, human iPSCs, Human primary keratinocytes and human MSCs were cultured according to manufacturer's instructions. For cell culture, 500 μL of corresponding medium was transferred per well in a 24 well plate treated with 25 μg/mL poly(L-lysine)-graft-polyethylene glycol (PLL-g-PEG, SuSoS). Then, 100 μL of emulsion were transferred per well. Different cell densities were used depending on the cell type. Being 10^4 cells/well for HEK293T, 4×10^4 cells/well for iPSCs, and 4×10^4 cells/well for MSCs.
Proliferation assay CCK8. Proliferation assays were performed using the Cell Counting Kit-8 (Dojindo, Kumamoto, Japan). HEK293T growing on emulsions were incubated with 100 μl CCK-8 reagent for 4 hours at 37° C. over different time-points, and optical density at 450 nm was measured.

For `Cc1c[nH]c(-c2cnc(NCCNc3ccc(C#N)cn3)nc2-c2ccc(Cl)cc2Cl)n1` [CHIR99021], the “Percentage of TNNT2+ (whether differentiation works)” value with iPSCs (CHIR99021 6 μM, varying Wnt-C59) is “consistently works across conditions except for 230 μm microdroplets when 5 μM of Wnt-C59 is used”; in the assay with iPSCs (higher CHIR99021 concentration (above 6 μM)), “only works for microdroplets and only when followed by 5 μM Wnt-C59”. As to Bovine Serum Albumin [BSA], in the assay on HEK293T cells, the “proliferation after long-term culture” value is “high proliferation”. The “cell adhesion to the interface (vinculin staining)” value with MSCs [1] is listed as “excellent cell adhesion”. As for MS-BSA: methacrylated BSA, the “coverage of bioemulsion surface by cells” value in the assay on MSCs [2] is on record as “cells cover all the available surface of the bioemulsions”.
